What all share (type): biochemical
Test [1] deals with T1, human AlaRS (Homo sapiens, UniProt P49588).
T1 construct: gene AARS1; pET21a, C-terminal 6x-His tag; expressed in E. coli Rosetta(DE3)
T1 sequence (P49588 1-968): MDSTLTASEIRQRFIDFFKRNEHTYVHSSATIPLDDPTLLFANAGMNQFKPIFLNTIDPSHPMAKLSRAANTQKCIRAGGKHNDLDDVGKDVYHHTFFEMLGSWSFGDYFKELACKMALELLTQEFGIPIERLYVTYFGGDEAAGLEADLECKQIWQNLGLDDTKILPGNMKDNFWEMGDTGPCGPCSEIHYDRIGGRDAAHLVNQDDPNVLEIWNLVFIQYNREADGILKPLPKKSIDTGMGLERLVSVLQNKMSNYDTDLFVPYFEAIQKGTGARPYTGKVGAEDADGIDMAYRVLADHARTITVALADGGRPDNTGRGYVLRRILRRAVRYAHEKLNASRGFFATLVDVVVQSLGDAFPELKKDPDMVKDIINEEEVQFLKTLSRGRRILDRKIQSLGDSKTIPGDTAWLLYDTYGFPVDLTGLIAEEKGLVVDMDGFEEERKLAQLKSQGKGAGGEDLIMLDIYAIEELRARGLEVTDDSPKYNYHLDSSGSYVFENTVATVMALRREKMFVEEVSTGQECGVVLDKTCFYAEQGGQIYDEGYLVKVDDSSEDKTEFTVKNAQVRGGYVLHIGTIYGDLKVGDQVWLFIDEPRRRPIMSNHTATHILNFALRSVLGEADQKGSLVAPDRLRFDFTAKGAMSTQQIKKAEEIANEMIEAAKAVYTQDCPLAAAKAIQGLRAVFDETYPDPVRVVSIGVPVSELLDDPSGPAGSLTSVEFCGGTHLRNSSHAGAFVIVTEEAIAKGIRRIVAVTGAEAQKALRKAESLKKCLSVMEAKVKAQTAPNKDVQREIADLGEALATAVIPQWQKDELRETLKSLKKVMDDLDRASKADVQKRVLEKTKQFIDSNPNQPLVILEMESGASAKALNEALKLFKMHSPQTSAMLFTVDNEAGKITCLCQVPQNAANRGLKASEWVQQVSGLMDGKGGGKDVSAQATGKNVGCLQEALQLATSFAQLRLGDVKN
The test can be described thus: ATP/PPi exchange. To be noted: 2 mM ATP, 90 μM alanine, 2 mM [32P]-PPi, 10 mM Mg2+, pH 7.2, 37 °C.

Test [2] deals with T2, Lm AlaRS (Leishmania major, UniProt Q4QBJ3).
T2 construct: gene LMJF_22_1540; codon-optimised synthetic gene in pTYB2; C-terminal intein tag cleaved off; expressed in E. coli BL21(DE3)
T2 sequence (Q4QBJ3 1-962): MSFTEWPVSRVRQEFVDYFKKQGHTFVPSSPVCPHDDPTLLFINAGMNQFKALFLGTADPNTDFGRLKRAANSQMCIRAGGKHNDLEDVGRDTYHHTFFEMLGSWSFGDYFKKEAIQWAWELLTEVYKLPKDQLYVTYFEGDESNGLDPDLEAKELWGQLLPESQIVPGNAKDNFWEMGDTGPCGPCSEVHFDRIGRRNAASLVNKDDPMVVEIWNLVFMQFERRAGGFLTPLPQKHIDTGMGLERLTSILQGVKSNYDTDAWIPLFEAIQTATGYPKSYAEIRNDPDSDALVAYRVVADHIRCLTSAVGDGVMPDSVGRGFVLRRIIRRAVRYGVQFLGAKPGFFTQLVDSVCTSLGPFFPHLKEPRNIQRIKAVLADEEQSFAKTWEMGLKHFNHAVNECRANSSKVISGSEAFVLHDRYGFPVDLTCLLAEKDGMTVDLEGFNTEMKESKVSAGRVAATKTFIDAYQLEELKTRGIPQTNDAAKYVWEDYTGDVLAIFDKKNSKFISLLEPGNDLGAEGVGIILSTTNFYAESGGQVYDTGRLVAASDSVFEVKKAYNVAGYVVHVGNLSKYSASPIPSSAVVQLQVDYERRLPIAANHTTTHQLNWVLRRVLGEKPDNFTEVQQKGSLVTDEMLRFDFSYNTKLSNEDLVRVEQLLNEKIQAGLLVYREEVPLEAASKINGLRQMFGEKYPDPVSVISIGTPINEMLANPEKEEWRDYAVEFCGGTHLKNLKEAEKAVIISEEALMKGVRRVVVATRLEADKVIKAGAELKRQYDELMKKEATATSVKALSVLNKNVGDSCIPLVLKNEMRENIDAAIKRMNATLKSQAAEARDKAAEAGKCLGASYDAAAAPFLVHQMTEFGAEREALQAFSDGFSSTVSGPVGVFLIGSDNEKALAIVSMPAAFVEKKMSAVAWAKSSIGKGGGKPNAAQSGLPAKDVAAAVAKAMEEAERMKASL
The experiment in a line: ATP/PPi exchange. The following applies: 2 mM ATP, 90 μM alanine, 2 mM [32P]-PPi, 10 mM Mg2+, pH 7.2, 37 °C.

In test [3] the target is T3, Lm ThrRS (Leishmania major, UniProt E9AEW4).
T3 construct: gene LMJF_35_1410; codon-optimised synthetic gene in pTYB2; C-terminal intein tag cleaved off; expressed in E. coli BL21(DE3)
T3 sequence (E9AEW4 1-787): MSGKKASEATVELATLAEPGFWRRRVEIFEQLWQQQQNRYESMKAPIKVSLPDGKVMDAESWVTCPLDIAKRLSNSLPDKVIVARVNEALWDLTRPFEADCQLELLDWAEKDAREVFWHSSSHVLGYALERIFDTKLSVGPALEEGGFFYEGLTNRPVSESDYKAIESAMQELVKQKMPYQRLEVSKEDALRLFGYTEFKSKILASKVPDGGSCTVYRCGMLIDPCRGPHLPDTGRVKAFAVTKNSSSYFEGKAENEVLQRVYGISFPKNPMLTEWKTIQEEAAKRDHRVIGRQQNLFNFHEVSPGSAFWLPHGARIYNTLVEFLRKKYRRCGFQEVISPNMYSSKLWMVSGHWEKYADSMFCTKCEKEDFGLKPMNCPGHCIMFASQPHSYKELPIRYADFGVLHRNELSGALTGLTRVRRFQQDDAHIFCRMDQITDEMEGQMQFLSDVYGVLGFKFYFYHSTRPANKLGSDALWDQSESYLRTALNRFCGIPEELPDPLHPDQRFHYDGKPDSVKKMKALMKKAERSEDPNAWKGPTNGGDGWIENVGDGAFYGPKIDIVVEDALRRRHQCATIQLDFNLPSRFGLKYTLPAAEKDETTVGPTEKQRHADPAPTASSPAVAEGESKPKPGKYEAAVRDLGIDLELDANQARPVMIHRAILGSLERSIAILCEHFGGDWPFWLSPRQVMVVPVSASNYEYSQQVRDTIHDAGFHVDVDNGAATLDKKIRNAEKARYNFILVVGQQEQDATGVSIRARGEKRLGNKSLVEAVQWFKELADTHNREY
The experiment in a line: aminoacylation of Lm tRNA-Thr with […]-Thr. The following applies: labelled compound, ATP.

Test [4] has as its target T1, human AlaRS. The experiment in a line: ATP/PPi exchange (amino acid activation). To be noted: 2 mM ATP, 2 mM [32P]-PPi, 10 mM Mg2+, pH 7.2, 37 °C, 90 μM alanine.
Test [5] deals with T4, Tc AlaRS (Trypanosoma cruzi, UniProt Q4D747).
T4 construct: gene Tc00.1047053506863.10; codon-optimised synthetic gene in pET21b; C-terminal 6x-His tag; expressed in E. coli XJb(DE3)
T4 sequence (Q4D747 1-959): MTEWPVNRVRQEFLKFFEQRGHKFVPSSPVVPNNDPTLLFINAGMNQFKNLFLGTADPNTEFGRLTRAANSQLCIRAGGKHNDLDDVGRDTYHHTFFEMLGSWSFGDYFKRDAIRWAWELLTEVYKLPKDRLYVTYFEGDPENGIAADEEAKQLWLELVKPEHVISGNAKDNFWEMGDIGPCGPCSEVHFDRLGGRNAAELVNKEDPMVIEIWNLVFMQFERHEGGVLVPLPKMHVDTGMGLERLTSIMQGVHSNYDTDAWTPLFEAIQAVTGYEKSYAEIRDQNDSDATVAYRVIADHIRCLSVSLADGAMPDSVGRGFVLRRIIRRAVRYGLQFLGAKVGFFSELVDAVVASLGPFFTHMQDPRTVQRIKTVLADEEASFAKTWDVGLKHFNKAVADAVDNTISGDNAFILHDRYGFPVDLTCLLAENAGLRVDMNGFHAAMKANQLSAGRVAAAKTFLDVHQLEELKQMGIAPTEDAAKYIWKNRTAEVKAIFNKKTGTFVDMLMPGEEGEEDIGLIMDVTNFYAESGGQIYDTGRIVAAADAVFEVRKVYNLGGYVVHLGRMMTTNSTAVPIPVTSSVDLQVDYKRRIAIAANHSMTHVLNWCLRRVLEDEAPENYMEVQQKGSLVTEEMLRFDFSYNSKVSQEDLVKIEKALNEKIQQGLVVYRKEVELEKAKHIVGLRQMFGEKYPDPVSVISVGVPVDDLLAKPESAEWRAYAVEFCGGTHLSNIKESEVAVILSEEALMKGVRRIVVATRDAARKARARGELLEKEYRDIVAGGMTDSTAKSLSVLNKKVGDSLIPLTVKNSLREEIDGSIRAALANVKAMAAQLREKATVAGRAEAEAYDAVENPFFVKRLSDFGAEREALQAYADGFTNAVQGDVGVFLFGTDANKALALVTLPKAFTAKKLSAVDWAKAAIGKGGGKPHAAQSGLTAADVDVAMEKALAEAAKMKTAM
The test can be described thus: aminoacylation of Tc tRNA-Ala with […]-Ala. The following applies: labelled compound, ATP.

With `Nc1ncnc2c1ncn2[C@@H]1O[C@H](COP(=O)(O)OP(=O)(O)OP(=O)(O)O)[C@@H](O)[C@H]1O` [ATP], the ATP/PPi exchange entry in test [1] and in test [2] was “we used pyrophosphate exchange to monitor ATP-dependent amino acid activation” in each case.

`C[C@@H](O)[C@H](N)C(=O)O` [threonine]: in test [3], the “aminoacylation of Lm tRNA-Thr with [14C]-Thr” value is “re-screened against Lm Threonyl-tRNA synthetase (ThrRS) and tRNA^Thr aminoacylation”.

On to `C[C@H](N)C(=O)O` [alanine], for which the “ATP/PPi exchange (amino acid activation)” value in test [4] is listed as “Treatment of the human AlaRS enzyme with the MNP inhibitors had no effect on amino acid activation”. For the same molecule, the “aminoacylation of Tc tRNA-Ala with [14C]-Ala” value in test [5] is “aminoacylation inhibition assay using Tc AlaRS and tRNA^Ala”.

Source of the values: PMC7046186, “Targeting tRNA-synthetase interactions towards novel therapeutic discovery against eukaryotic pathogens” (PLoS Neglected Tropical Diseases, 2020).
